According to ChEMBL document CHEMBL1667845, “LC-MS and NMR characterization of the purple chromophore formed in the o-aminobenzaldehyde assay of dihydrodipicolinate synthase” (Bioorg Med Chem, 2011):
The source made the active and inactive calls.

Assays:
[1] = test system: Escherichia coli; experiment: Binding affinity to Escherichia coli DHDPS assessed as formation of purple chromophore after 10 to 40 mins by o-aminobenzaldehyde assay
[2] = test system: Escherichia coli; experiment: Binding affinity to Escherichia coli DHDPS assessed as formation of purple chromophore after 70 mins by o-aminobenzaldehyde assay using UV-vis spectrophotometric analysis using UV-vis spectrophotometric analysis
[3] = test system: Escherichia coli; experiment: Binding affinity to Escherichia coli DHDPS assessed as formation of purple chromophore after 30 to 60 mins by o-aminobenzaldehyde assay using UV-vis spectrophotometric analysis using LC-MS analysis

Measured: Activity

O=C(O)C1=N[C@H](C(=O)O)C[C@H](O)C1
active: all assays above
